Assay results taken from patent US20080305059A1, “Skin lightening compositions and methods” (priority 2007, published 2008).

What was measured:
[1] = test system: skin color of forearm test sites; experiment: Skin lightening efficacy on forearms, chromometric measurement of L value and ITA degree; assay type: in vivo, human; settings: for ΔITA Degrees / ΔL Value: applied twice a day to forearm, 15 individuals, delta = percent change from baseline; for ΔITA Degrees / ΔL Value / adverse effects: 0.5% hexylresorcinol or 2% hydroquinone composition; for adverse effects: twice a day for eight weeks on forearms
Description: The composition was prepared by mixing the components of Phase A-1 until a substantially homogenous mixture was obtained and then dispersing that mixture in Phase A-2 with moderate agitation. The mixture was mixed until a homogeneous clear dispersion was obtained. Then, the components of Phase B were combined, mixed and heated to 75° C. and then added to the Phase A-1/A-2 mixture. The so formed mixture was homogenized for 2-3 minutes to obtain a substantially uniform composition. Phase C was added and mixed until uniform. After cooling down to 50° C., Phases D, E and F in the listed order were added and mixed and the final composition then cooled down to room temperature. […] A second skin lightening composition was prepared in the same manner with the same formulation except that the highly purified hexylresorcinol was replaced with 2% hydroquinone (Eastman) and water adjusted accordingly. Each of the skin lightening compositions was applied to different test sites on the forearms of fifteen individuals. The compositions were applied twice a day, morning and evening, for eight weeks. The test sites as well as untreated sites on each forearm were evaluated by a trained clinical evaluator for brightness of skin, evenness of skin tone, appearance of skin, dryness of skin and radiance of skin using a 10 point scale prior to the first application and following Week 4 and Week 8. Each test site was evaluated for skin color change as represented by the change in L values and ITA.degree (Individual Topology Angle—COLIPA SPF test method) as measured by chromometric measurement. ITA° was calculated using the formula: ITA°=[Arc Tangent(L*−50)/b*)]180/3.1416 Wherein, L*value—lightness and b*—color in blue-yellow axis. The results of the testing were as presented in Table 3, wherein the delta represents the percent change in skin color from the baseline coloration of the untreated skin.

[2] = test system: skin of the infrascapular regions of the back; experiment: Skin sensitivity: repeat occlusive patch test (nine inductive patchings plus challenge); assay type: in vivo, human; settings: 5% dilution in corn oil, 111 subjects
Description: Given the known sensitivity issues associated with commercial grade hexylresorcinol, evaluation of the skin sensitivity to the purified hexylresorcinol was also evaluated. Skin sensitivity was evaluated following the method cited in the reference Appraisal of the Safety of Chemicals in Food, Drugs and Cosmetics, published by The Association of Food and Drug Officials of The United States. The specific method employed used nine inductive patchings, not the ten cited in the reference, under occlusive patch conditions. Samples were prepared for evaluation by diluting the highly pure hexylresorcinol in corn oil to a 5% concentration, with dilutions freshly prepared on each application day. 0.2 ml of the diluted test material was dispensed onto occlusive, hypoallergenic patches and the treated patches applied directly to the skin of the infrascapular regions of the back, to the right or left of the midline of each subject: one hundred and eleven subjects were employed. […] If evidence of a reaction was found, the area of edema and/or erythema was then measured and recorded: edema being estimated by an evaluation of the skin with respect to the contour of the unaffected normal skin. […] The challenge or retest sites were monitored and scored 24 and 48 hours after application.

| SMILES | change in skin color compared with the 2% hydroquinone composition ([1]; 0.5% composition, eight weeks twice a day) | ΔITA Degrees ([1]; Week 4) [%] | ΔL Value ([1]; Week 4) [%] | ΔITA Degrees ([1]; Week 8) [%] | ΔL Value ([1]; Week 8) [%] | adverse effects [1] | primary irritation (edema or erythema) ([2]; 0.2 ml occlusive patch, nine 24 hour exposures) | sensitization after challenge patch ([2]; challenge after 10-14 day rest, scored 24 and 48 hours) |
| --- | --- | --- | --- | --- | --- | --- | --- | --- |
| CCCCCCc1ccc(O)cc1O [Hexylresorcinol, 4-Hexylresorcinol] | comparable, statistically significant | 27.48 | 3.4 | 37.56 | 4.67 | No adverse effects | NON-PRIMARY IRRITANT | NON-PRIMARY SENSITIZER |
| Oc1ccc(O)cc1 [Hydroquinone, hydroquinone, reference compound] |  | 27.66 | 3.24 | 39.38 | 4.27 | No adverse effects |  |  |
